Assay results: patent US10001472B2, “3D determination of cell chirality” (Rensselaer Polytechnic Institute, priority 2015, dated 2018)

Test system: Madin-Darby canine kidney (MDCK) epithelial cells
Experiment: 3D cell chirality (rotation direction) of cells in bilayer MATRIGEL substrate
Assay type: cell-based
Conditions: MDCK cells in 3D substrate, FIG. 5
Method: The cell line used was Madin-Darby canine kidney (MDCK) epithelial cells. The 3D substrate culture system included a base layer was composed of 100% MATRIGEL®. The base layer was seeded with a single cell suspension of MDCK epithelial cells. After cell attachments to the base layer, a top layer was generated by overlaying culture with 2% MATRIGEL®.
Self-organization of the epithelial cells during microtissue development was observed using phase contrast imaging and confocal microscopy. The cells were stained with DAPI (4′,6-diamidino-2-phenylindole), Phalloidin, and ZO-1 antibody.
Time-lapse images were collected for at least 2 hours at intervals of 1 minute over a period of 6 days. Videos were processed in ImageJ and analyzed for quantification of collective rotational direction. Direction of rotation was categorized into clockwise (CW), counterclockwise (CCW), complex rotation, and no rotation. Phase-contrast images of microtissue development from a single cell embedded within the multilayer MATRIGEL® system over time.
Latrunculin A was used to study the role of actin function in left right asymmetry. Latrunculin A is a drug which inhibits actin polymerization. […] These studies are consistent with 2D studies.

C/C1=C/C(=O)O[C@@H]2C[C@@H](CC[C@H](C)/C=C\C=C\CC1)O[C@@](O)([C@@H]1CSC(=O)N1)C2 [Latrunculin A]
effect on cell chirality (rotation direction) (base layer 100% MATRIGEL, top layer 2% MATRIGEL): reversal of chirality
concentration dependence of chirality effect (higher concentrations of Latrunculin A): increasing clockwise chirality
